Holding throughout (experiment): biochemical
Common to all, as to set-up: DiscoverX KinomeScan competition binding assay across human kinases; per cent of control at 10 and 100 uM

Assay [1] deals with T1, ABL1-phosphorylated (Homo sapiens, UniProt P00519).
T1 construct: phosphorylated
The settings on record: competition binding, % of control. Summed up:
(§1)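 KinomeScan competition binding was run across a human kinase panel at 10 μM and 100 μM levosimendan. Results are %control = (test − positive control)/(negative control − positive control) × 100.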

Assay [2] concerns the target ACVR1B (Homo sapiens, UniProt P36896). Particulars: competition binding, % of control; read-out: Percent Control (100 uM Levosimendan). In short, it runs like this: as §1
Assay [3] addresses ALK(C1156Y) (Homo sapiens, UniProt Q9UM73, C1156Y). The settings on record: competition binding, % of control; read-out: Percent Control (100 uM Levosimendan). Summed up: as §1
The target in assay [4] is T2, ASK2 (Homo sapiens, UniProt O95382).
T2 construct: gene MAP3K6
Particulars: competition binding, % of control; read-out: Percent Control (100 uM Levosimendan). In short, it runs like this: as §1

Assay [5] has as its target T3, BRK (Homo sapiens, UniProt Q13882).
T3 construct: gene PTK6
The settings on record: competition binding, % of control; read-out: Percent Control (100 uM Levosimendan). In short, it runs like this:
as §1

The target of assay [6] is CDK3 (Homo sapiens, UniProt Q00526). The settings on record: competition binding, % of control; read-out: Percent Control (100 uM Levosimendan). Summed up:
as §1

Assay [7] addresses CSNK1G1 (Homo sapiens, UniProt Q9HCP0). Particulars: competition binding, % of control; read-out: Percent Control (100 uM Levosimendan). Summed up: as §1
In assay [8] the target is T4, CTK (Homo sapiens, UniProt P42679).
T4 construct: gene MATK
The settings on record: competition binding, % of control; read-out: Percent Control (100 uM Levosimendan). Summed up:
as §1

The target in assay [9] is HIPK3 (Homo sapiens, UniProt Q9H422). Particulars: competition binding, % of control; read-out: Percent Control (100 uM Levosimendan). In short, it runs like this:
as §1

The target in assay [10] is T5, JNK2 (Homo sapiens, UniProt P45984).
T5 construct: gene MAPK9
The settings on record: competition binding, % of control; read-out: Percent Control (100 uM Levosimendan). Summed up:
as §1

For assay [11], the target named is LRRK2(G2019S) (Homo sapiens, UniProt Q5S007, G2019S). Particulars: competition binding, % of control; read-out: Percent Control (100 uM Levosimendan). In short, it runs like this:
as §1

The target in assay [12] is PDGFRB (Homo sapiens, UniProt P09619). The settings on record: competition binding, % of control. Summed up:
as §1

Assay [13] addresses PIK3CA(M1043I) (Homo sapiens, UniProt P42336, M1043I). The settings on record: competition binding, % of control; read-out: Percent Control (100 uM Levosimendan). Summed up: as §1
The target of assay [14] is PIK3CD (Homo sapiens, UniProt O00329). The settings on record: competition binding, % of control; read-out: Percent Control (100 uM Levosimendan). In short, it runs like this:
as §1

For assay [15], the target named is PRKCI (Homo sapiens, UniProt P41743). The settings on record: competition binding, % of control; read-out: Percent Control (100 uM Levosimendan). Summed up: as §1
Assay [16] has as its target T6, RSK4(Kin.Dom.2-C-terminal) (Homo sapiens, UniProt Q9UK32).
T6 construct: gene RPS6KA6; Kin.Dom.2-C-terminal
The settings on record: competition binding, % of control. In short, it runs like this:
as §1

Assay [17] concerns the target T7, TRKB (Homo sapiens, UniProt Q16620).
T7 construct: gene NTRK2
The settings on record: competition binding, % of control; read-out: Percent Control (100 uM Levosimendan). Summed up:
as §1

For assay [18], the target named is T8, TYK2(JH1domain-catalytic) (Homo sapiens, UniProt P29597).
T8 construct: JH1domain-catalytic
T8 sequence (P29597 whole entry): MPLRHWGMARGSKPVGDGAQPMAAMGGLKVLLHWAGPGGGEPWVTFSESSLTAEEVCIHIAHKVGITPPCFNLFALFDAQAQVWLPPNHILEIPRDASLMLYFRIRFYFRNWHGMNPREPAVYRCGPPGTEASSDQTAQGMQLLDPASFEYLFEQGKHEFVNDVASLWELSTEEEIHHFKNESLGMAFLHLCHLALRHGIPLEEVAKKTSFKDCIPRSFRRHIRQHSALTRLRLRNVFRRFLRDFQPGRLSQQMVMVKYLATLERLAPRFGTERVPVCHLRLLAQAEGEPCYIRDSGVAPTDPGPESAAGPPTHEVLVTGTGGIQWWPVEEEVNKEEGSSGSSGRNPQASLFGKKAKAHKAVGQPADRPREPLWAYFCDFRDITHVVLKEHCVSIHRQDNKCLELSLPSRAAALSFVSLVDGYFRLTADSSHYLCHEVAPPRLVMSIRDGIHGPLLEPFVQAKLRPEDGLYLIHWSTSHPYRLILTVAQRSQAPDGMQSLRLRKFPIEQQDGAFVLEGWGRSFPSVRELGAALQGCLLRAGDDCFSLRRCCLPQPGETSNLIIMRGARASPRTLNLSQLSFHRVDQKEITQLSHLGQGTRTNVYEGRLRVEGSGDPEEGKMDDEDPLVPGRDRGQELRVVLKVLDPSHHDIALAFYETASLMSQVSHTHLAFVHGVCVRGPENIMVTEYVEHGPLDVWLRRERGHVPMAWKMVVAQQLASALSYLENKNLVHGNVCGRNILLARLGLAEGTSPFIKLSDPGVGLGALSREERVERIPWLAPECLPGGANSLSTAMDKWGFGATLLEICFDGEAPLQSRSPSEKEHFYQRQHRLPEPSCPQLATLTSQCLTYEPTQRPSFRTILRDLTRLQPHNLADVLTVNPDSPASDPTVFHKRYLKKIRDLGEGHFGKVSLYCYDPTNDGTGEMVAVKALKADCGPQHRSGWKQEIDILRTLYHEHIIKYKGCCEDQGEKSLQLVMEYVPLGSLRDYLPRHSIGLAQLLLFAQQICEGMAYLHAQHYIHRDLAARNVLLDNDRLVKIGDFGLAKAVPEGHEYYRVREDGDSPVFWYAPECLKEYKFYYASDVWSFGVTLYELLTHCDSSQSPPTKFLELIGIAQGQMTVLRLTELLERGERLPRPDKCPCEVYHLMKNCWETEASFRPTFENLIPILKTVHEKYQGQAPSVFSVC
The settings on record: competition binding, % of control. Summed up: as §1

Setting [19] is: read-out: Percent Control (10 uM Levosimendan).
[20] abbreviates: read-out: Percent Control (100 uM Levosimendan).

Structures are written as SMILES.

T1 sequence (P00519 whole entry): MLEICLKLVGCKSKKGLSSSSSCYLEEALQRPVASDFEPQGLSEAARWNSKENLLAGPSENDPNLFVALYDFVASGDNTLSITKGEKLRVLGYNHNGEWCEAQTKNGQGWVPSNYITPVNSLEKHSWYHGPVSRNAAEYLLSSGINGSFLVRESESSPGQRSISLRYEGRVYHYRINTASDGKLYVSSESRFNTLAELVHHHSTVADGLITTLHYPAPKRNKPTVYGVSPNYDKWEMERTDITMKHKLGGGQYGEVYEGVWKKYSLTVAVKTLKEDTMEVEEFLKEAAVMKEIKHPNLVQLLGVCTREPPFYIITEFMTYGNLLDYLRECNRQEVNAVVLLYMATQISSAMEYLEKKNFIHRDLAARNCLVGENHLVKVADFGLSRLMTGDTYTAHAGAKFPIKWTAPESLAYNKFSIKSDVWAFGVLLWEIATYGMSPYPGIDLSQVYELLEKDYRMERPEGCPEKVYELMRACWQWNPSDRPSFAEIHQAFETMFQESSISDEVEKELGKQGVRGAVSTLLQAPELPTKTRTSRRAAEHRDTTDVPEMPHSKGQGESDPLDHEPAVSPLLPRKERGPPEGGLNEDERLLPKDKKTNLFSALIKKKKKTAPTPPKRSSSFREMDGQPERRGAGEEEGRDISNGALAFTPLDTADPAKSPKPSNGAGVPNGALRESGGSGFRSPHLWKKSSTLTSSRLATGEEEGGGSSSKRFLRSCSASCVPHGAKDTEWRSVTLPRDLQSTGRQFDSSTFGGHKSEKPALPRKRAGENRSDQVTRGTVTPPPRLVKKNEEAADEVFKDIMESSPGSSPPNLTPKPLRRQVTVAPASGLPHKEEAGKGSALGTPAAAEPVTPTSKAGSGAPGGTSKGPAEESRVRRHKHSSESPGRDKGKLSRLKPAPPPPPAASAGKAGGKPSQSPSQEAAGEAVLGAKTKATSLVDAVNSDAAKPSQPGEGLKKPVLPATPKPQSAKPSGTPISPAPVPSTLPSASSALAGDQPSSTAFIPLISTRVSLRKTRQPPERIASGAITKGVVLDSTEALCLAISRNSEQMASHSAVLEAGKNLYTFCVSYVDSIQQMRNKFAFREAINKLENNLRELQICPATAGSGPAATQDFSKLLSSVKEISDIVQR
Chain of PDGFRB (P09619 whole entry): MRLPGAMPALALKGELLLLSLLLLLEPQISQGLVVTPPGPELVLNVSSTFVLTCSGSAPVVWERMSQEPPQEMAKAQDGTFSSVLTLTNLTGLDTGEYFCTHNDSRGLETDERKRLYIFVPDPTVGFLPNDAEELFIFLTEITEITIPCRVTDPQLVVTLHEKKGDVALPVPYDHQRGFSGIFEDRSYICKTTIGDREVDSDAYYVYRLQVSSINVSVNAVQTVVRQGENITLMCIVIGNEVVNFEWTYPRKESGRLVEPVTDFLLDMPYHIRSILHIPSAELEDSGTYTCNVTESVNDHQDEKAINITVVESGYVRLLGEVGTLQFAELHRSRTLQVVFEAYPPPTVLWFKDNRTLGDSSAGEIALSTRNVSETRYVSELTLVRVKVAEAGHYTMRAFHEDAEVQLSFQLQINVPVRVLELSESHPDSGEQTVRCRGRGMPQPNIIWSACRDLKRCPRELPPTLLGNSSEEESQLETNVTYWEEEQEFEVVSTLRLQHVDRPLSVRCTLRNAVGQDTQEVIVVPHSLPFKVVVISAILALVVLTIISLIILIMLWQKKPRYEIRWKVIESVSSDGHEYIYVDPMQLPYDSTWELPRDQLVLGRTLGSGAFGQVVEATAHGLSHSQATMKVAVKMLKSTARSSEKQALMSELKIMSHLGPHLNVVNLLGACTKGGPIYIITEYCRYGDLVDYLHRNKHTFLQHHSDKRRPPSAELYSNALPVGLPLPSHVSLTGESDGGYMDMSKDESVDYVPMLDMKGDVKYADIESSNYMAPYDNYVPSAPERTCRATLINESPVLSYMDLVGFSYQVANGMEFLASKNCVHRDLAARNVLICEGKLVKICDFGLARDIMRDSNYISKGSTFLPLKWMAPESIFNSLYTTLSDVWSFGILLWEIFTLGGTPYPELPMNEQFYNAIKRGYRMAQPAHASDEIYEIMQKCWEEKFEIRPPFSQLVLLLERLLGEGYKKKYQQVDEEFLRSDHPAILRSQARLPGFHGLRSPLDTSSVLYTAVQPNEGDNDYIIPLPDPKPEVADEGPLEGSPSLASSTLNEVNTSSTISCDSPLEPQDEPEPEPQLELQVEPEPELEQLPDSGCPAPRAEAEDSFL
T6 sequence (Q9UK32 whole entry): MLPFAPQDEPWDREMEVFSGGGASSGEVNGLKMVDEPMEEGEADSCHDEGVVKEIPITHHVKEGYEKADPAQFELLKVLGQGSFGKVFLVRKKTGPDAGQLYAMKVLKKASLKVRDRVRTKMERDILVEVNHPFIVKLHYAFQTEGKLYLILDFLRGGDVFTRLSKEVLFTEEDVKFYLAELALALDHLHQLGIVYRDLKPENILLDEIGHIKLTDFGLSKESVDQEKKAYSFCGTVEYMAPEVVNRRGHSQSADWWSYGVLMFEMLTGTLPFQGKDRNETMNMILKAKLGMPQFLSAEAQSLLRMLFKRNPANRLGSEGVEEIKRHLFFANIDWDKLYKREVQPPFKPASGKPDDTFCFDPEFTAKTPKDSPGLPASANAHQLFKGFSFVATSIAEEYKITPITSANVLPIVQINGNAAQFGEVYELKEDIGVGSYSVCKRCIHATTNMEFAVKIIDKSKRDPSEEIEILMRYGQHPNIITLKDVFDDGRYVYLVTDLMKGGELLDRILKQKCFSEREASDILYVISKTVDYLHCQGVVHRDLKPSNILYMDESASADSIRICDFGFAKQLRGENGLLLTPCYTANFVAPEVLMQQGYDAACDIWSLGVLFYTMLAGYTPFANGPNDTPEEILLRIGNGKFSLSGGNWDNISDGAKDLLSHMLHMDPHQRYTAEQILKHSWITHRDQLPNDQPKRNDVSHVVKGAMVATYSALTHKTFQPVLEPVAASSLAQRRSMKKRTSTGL
T3 sequence (Q13882 whole entry): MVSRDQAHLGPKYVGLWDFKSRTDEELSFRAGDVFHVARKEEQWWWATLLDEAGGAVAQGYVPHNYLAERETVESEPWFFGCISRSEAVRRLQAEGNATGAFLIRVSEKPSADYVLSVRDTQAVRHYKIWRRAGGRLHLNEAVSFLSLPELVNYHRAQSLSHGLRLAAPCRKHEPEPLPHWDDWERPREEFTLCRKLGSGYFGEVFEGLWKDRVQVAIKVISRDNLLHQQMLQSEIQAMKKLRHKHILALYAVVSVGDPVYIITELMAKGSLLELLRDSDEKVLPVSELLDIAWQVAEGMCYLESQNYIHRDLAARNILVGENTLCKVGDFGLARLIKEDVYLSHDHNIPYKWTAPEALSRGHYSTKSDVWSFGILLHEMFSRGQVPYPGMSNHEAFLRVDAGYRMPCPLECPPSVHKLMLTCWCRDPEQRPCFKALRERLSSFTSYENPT
Chain of CSNK1G1 (Q9HCP0 whole entry): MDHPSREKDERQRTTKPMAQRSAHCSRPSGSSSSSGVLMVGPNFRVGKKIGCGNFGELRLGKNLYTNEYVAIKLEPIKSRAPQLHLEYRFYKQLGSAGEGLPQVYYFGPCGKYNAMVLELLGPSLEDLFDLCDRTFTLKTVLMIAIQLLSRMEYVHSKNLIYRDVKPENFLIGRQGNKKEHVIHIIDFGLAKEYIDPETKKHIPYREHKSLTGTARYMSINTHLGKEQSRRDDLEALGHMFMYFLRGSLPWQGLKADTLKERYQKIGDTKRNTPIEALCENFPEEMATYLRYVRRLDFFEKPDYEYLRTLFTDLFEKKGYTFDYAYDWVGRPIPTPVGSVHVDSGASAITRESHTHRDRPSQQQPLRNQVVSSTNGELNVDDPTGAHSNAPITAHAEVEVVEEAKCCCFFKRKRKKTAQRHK

As for `C[C@@H]1CC(=O)NN=C1c1ccc(NN=C(C#N)C#N)cc1` [levosimendan], the remaining binding at 10 µM in assay [1] (setting [19]) turned out to be 100%; in [12] (setting [19]) it was 58%; in assay [16] (setting [19]) it was 82%; in assay [18] (setting [19]), 85%. For the same compound, the remaining binding at 100 µM in assay [1] (setting [20]) worked out at 37%; in [2], 61%; in [3] it was 64%; in [4], 80%; in assay [5], 85%; in [6] it was 100%. Moreover, the remaining binding at 100 µM in assay [7] was 78%; in [8], 72%; in assay [9] it was 100%; in assay [10], 100%; in assay [11], 100%; in assay [12] (setting [20]), 12%. Besides, the remaining binding at 100 µM in assay [13] was 100%; in assay [14] it was 100%; in assay [15] it was 58%; in assay [16] (setting [20]), 31%; in assay [17], 81%; in [18] (setting [20]), 27%.

The record behind these values is article PMC6576746, “Rational discovery of dual-indication multi-target PDE/Kinase inhibitor for precision anti-cancer therapy using structural systems pharmacology” (PLoS Computational Biology, 2019).
